Experimental data as given in ChEMBL document CHEMBL1150659, “Pachyclavulariaenones D-G, new diterpenoids from the soft coral Pachyclavularia violacea” (2002).
In brackets after ≈: the same amount, converted by molar mass.

Columns and labels:
[1] = system: P-388 (Mus musculus); test: Cytotoxicity against mouse P-388 cells; conditions: read-out: ED50 (the source's name)
[2] = system: HT-29; test: Cytotoxicity against human HT-29 cells; type: functional
[3] = system: A549; test: Cytotoxicity against human A549 cells; type: functional
[4] = system: P388; test: Cytotoxicity against mouse P388 cells; type: functional, cell-based

SMILES	EC50 [1] [µg/mL]	EC50 ([2]; read-out: ED50 (the source's name)) [µg/mL]	Activity [3]	Activity [2]	Activity [4]
CC1=CC(=O)[C@H]2[C@H]3[C@@H]1[C@@H]1C[C@@](C)(O)[C@H](O)C[C@@H](O)[C@](C)(OC[C@@H]2C)[C@H]3O1 [PACHYCLAVULARIAENONE G]	0.2 (≈ 0.546 µM)	3.2 (≈ 8.73 µM)	–	–	–
CC(=O)O[C@@H]1C[C@@H](O)[C@]2(C)OC[C@H](C)[C@H]3C(=O)C=C(C)[C@@H]4[C@H]3[C@@H]2O[C@H]4C[C@@]1(C)O	–	–	Not toxic	Not toxic	–
CC1=CC(=O)[C@H]2[C@H]3[C@@H]1[C@@H]1C/C(C)=C\C[C@@H](O)[C@](C)(OC[C@@H]2C)[C@H]3O1	–	–	Not toxic	Not toxic	Not toxic
CC(=O)O[C@@H]1C[C@@H](OC(C)=O)[C@](C)(O)C[C@@H]2O[C@H]3[C@@H]4[C@H]2C(C)=CC(=O)[C@@H]4[C@@H](C)CO[C@@]13C	–	–	Not toxic	Not toxic	–
